Data from US20120028929A1, “TETRACYCLINE STABILIZING FORMULATIONS” (ALACRITY BIOSCIENCE, INC., priority 2008, published 2012).
“And” between values parts separate entries of the source, which are not always exact repeats. Equal entries are not always repeated.

Columns and labels:
[1] = previous studies; cited from earlier work
[2] = Multi-dimensional parametric testing of doxycycline stability in aqueous solution; type: physicochemical; conditions: for doxycycline stability t = 0 / doxycycline stability 2 wks / doxycycline stability 4 wks: 250 μg/mL; for degradation: 2 weeks
Text: (§1) Standard methods known in the art are used for monitoring the degradation of tetracycline into its epimers or degradation products. For example, one method for monitoring tetracycline degradation is an analytical technique using chromatography, e.g. high pressure liquid chromatography (HPLC), to separate the various degradants, e.g. epimers and other degradants, and a sensitive detector to identify and quantify the concentrations of the drug and degradants over time.
A multi-dimensional parametric test on doxycycline stability was conducted to study the effect of pH, storage temperature and the presence of various chemical agents.

[3] = type: physicochemical
Procedure: The rate of doxycycline epimerization increased with temperature and time (see Table 7). […] Long-term storage (more than 18 months) should therefore be at refrigeration temperatures (2-8° C.) to minimize conversion of doxycycline to its epimers.
After 12 months of storage at 5° C., about 0.0014% w/w of the doxycycline in solution was lost to degradation. That is, original doxycyline concentration was 0.025% w/w and concentration after 12 months was 0.0236% w/w, corresponding to 94.4% Label Claim (LC).
The epimerization of doxycycline into 4-epidoxycycline is reversible, and the rate of 4-epidoxycycline formation is related to the kinetic equilibrium between the two compounds. Therefore, one method for specifically reducing the rate of doxycycline epimerization into 4-epidoxycycline is to fortify the formulation with 4-epidoxycycline.

[4] = Combinatorial effect of antioxidants and tonicity adjustment agents in doxycycline stability; type: physicochemical; conditions: for doxycycline stability 5 Wks / doxycycline stability 8 Wks / doxycycline stability 12 Wks / doxycycline stability 2 Wks / doxycycline stability Init.: HPMC
Text: as §1

[5] = Disodium Edetate, pH 5.3, 5° C.
[6] = Disodium Edetate, pH 5.3, 25° C.
[7] = Sodium Metabisulfite, pH 5.3, 5° C.
[8] = Sodium Metabisulfite, pH 5.3, 25° C.
[9] = Sodium Thiosulfate, pH 5.3, 5° C.
[10] = Sodium Thiosulfate, pH 5.3, 25° C.
[11] = Edetate Disodium 0.1%, Sodium Metabisulfite 0.1%, Sodium Thiosulfate 0.2%, Glycerin (167 mOsm/kg), 5° C.
[12] = Edetate Disodium 0.1%, Sodium Metabisulfite 0.1%, Sodium Thiosulfate 0.2%, Glycerin (167 mOsm/kg), 25° C.
[13] = Edetate Disodium 0.2%, Sodium Metabisulfite 0.2%, Sodium Thiosulfate 0.3%, Glycerin (287 mOsm/kg), 5° C.
[14] = Edetate Disodium 0.2%, Sodium Metabisulfite 0.2%, Sodium Thiosulfate 0.3%, Glycerin (287 mOsm/kg), 25° C.
[15] = Edetate Disodium 0.2%, Sodium Metabisulfite 0.2%, Sodium Thiosulfate 0.3%, Glycerin (287 mOsm/kg), 40° C.
[16] = Edetate Disodium 0.2%, Sodium Metabisulfite 0.2%, Sodium Thiosulfate 0.3%, NaCl (330 mOsm/kg), 5° C.

C[C@H]1c2cccc(O)c2C(O)=C2C(=O)[C@]3(O)C(O)=C(C(N)=O)C(=O)[C@H](N(C)C)[C@@H]3[C@@H](O)[C@@H]21 [4-epidoxycycline]
function as an antibiotic [1]: does not function as an antibiotic

C[C@H]1c2cccc(O)c2C(=O)C2=C(O)[C@]3(O)C(=O)C(C(N)=O)=C(O)[C@@H](N(C)C)[C@@H]3[C@@H](O)[C@@H]21 [doxycycline]
doxycycline stability t = 0 ([2]; Disodium Edetate, pH 5.3): 100%
doxycycline stability 2 wks [2, 5]: 99%
doxycycline stability 4 wks [2, 5]: 96%
doxycycline stability 2 wks [2, 6]: 97%
doxycycline stability 4 wks [2, 6]: 88%
doxycycline stability 2 wks ([2]; Disodium Edetate, pH 5.3, 40° C.): 24%
doxycycline stability t = 0 ([2]; Disodium Edetate, pH 7): 100%
doxycycline stability 2 wks ([2]; Disodium Edetate, pH 7, 5° C.): 96%
doxycycline stability 2 wks ([2]; Disodium Edetate, pH 7, 25° C.): 55%
doxycycline stability 2 wks ([2]; Disodium Edetate, pH 7, 40° C.): 4%
doxycycline stability t = 0 ([2]; None (no antioxidant/chelating agent), pH 5.3): 100%
doxycycline stability 2 wks ([2]; None, pH 5.3, 5° C.): 96%
doxycycline stability 4 wks ([2]; None, pH 5.3, 5° C.): 93%
doxycycline stability 2 wks ([2]; None, pH 5.3, 25° C.): 73%
doxycycline stability 4 wks ([2]; None, pH 5.3, 25° C.): 59%
doxycycline stability 2 wks ([2]; None, pH 5.3, 40° C.): 19%
doxycycline stability t = 0 ([2]; None, pH 7): 100%
doxycycline stability 2 wks ([2]; None, pH 7, 5° C.): 94%
doxycycline stability 2 wks ([2]; None, pH 7, 25° C.): 49%
doxycycline stability 2 wks ([2]; None, pH 7, 40° C.): 11%
doxycycline stability t = 0 ([2]; Sodium Bisulfite, pH 5.3): 100%
doxycycline stability 2 wks ([2]; Sodium Bisulfite, pH 5.3, 5° C.): 88%
doxycycline stability 2 wks ([2]; Sodium Bisulfite, pH 5.3, 25° C.): 72%
doxycycline stability 2 wks ([2]; Sodium Bisulfite, pH 5.3, 40° C.): 57%
doxycycline stability t = 0 ([2]; Sodium Bisulfite, pH 7): 100%
doxycycline stability 2 wks ([2]; Sodium Bisulfite, pH 7, 5° C.): 91%
doxycycline stability 2 wks ([2]; Sodium Bisulfite, pH 7, 25° C.): 83%
doxycycline stability 2 wks ([2]; Sodium Bisulfite, pH 7, 40° C.): 48%
doxycycline stability t = 0 ([2]; Sodium Metabisulfite, pH 5.3): 100%
doxycycline stability 2 wks [2, 7]: 99%
doxycycline stability 4 wks [2, 7]: 97%
doxycycline stability 2 wks [2, 8]: 92%
doxycycline stability 4 wks [2, 8]: 90%
doxycycline stability 2 wks ([2]; Sodium Metabisulfite, pH 5.3, 40° C.): 59%
doxycycline stability t = 0 ([2]; Sodium Metabisulfite, pH 7): 100%
doxycycline stability 2 wks ([2]; Sodium Metabisulfite, pH 7, 5° C.): 97%
doxycycline stability 2 wks ([2]; Sodium Metabisulfite, pH 7, 25° C.): 86%
doxycycline stability 2 wks ([2]; Sodium Metabisulfite, pH 7, 40° C.): 51%
doxycycline stability t = 0 ([2]; Sodium Thiosulfate, pH 5.3): 100%
doxycycline stability 2 wks [2, 9]: 99%
doxycycline stability 4 wks [2, 9]: 99%
doxycycline stability 2 wks [2, 10]: 95%
doxycycline stability 4 wks [2, 10]: 93%
doxycycline stability 2 wks ([2]; Sodium Thiosulfate, pH 5.3, 40° C.): 67%
doxycycline stability t = 0 ([2]; Sodium Thiosulfate, pH 7): 100%
doxycycline stability 2 wks ([2]; Sodium Thiosulfate, pH 7, 5° C.): 96%
doxycycline stability 2 wks ([2]; Sodium Thiosulfate, pH 7, 25° C.): 91%
doxycycline stability 2 wks ([2]; Sodium Thiosulfate, pH 7, 40° C.): 7%
doxycycline stability t = 0 ([2]; Thiourea, pH 5.3): 100%
doxycycline stability 2 wks ([2]; Thiourea, pH 5.3, 5° C.): 98%
doxycycline stability 2 wks ([2]; Thiourea, pH 5.3, 25° C.): 80%
doxycycline stability 2 wks ([2]; Thiourea, pH 5.3, 40° C.): 22%
doxycycline stability t = 0 ([2]; Thiourea, pH 7): 100%
doxycycline stability 2 wks ([2]; Thiourea, pH 7, 5° C.): 98%
doxycycline stability 2 wks ([2]; Thiourea, pH 7, 25° C.): 74%
doxycycline stability 2 wks ([2]; Thiourea, pH 7, 40° C.): 9%
degradation ([2]; aqueous solution, neutral pH, 5° C., no additive): 6%
degradation ([2]; aqueous solution, neutral pH, room temperature (RT), no additive): 51%
degradation ([2]; aqueous solution, neutral pH, room temperature (RT), no additive, listed as doxcycline): about 51%
degradation ([2]; pH 5.3, RT, addition of edetate disodium): 3%
degradation ([2]; pH 5.3, RT, addition of sodium bisulfate): 28%
degradation ([2]; pH 5.3, RT, addition of sodium metabisulfite): 8%
degradation ([2]; pH 5.3, RT, addition of sodium thiosulfate): 5%
degradation ([2]; pH 5.3, RT, addition of thiourea): 20%
degradation ([2]; pH 5.3, RT, no additive): 28% and 27%
effect of fortifying with 4-epidoxycycline on degradation [3]: reduced degradation of doxycycline during storage
share of degradation by epimerization into 4-epidoxycycline [3]: over half of the degradation
doxycycline in solution lost to degradation ([3]; 12 months, 0.025 % w/w): about 0.0014 % w/w
route of doxycycline degradation ([3]; 12 months, 0.025 % w/w): practically all of the degradation of doxycycline at 5 °C was through conversion into 4-epidoxycycline
degradation ([4]; 0.025% w/w doxycycline, edetate, metabisulfite, thiosulfate, phosphate-citrate buffer, glycerin, pH 5.2-5.8, 12 weeks at 5° C.): no detectable degradation
doxycycline stability 5 Wks [4, 11]: 102.8%
doxycycline stability 8 Wks [4, 11]: 100.6%
doxycycline stability 12 Wks [4, 11]: 99.4%
doxycycline stability 5 Wks [4, 12]: 97.0%
doxycycline stability 8 Wks [4, 12]: 90.4%
doxycycline stability 12 Wks [4, 12]: 85.1%
doxycycline stability 5 Wks ([4]; Edetate Disodium 0.1%, Sodium Metabisulfite 0.1%, Sodium Thiosulfate 0.2%, Glycerin (167 mOsm/kg), 40° C.): 58.2%
doxycycline stability 5 Wks ([4]; Edetate Disodium 0.1%, Sodium Metabisulfite 0.1%, Sodium Thiosulfate 0.2%, NaCl (325 mOsm/kg), 5° C.): 103.6%
doxycycline stability 5 Wks ([4]; Edetate Disodium 0.1%, Sodium Metabisulfite 0.1%, Sodium Thiosulfate 0.2%, NaCl (325 mOsm/kg), 25° C.): 96.6%
doxycycline stability 5 Wks ([4]; Edetate Disodium 0.1%, Sodium Metabisulfite 0.1%, Sodium Thiosulfate 0.2%, NaCl (325 mOsm/kg), 40° C.): 55.8%
doxycycline stability 5 Wks ([4]; Edetate Disodium 0.1%, Sodium Metabisulfite 0.1%, Glycerin (138 mOsm/kg), 5° C.): 94.6%
doxycycline stability 5 Wks ([4]; Edetate Disodium 0.1%, Sodium Metabisulfite 0.1%, Glycerin (138 mOsm/kg), 25° C.): 84.9%
doxycycline stability 5 Wks ([4]; Edetate Disodium 0.1%, Sodium Metabisulfite 0.1%, Glycerin (138 mOsm/kg), 40° C.): 47.1%
doxycycline stability 5 Wks ([4]; Edetate Disodium 0.1%, Sodium Metabisulfite 0.1%, NaCl (305 mOsm/kg), 5° C.): 90.6%
doxycycline stability 5 Wks ([4]; Edetate Disodium 0.1%, Sodium Metabisulfite 0.1%, NaCl (305 mOsm/kg), 25° C.): 81.8%
doxycycline stability 5 Wks ([4]; Edetate Disodium 0.1%, Sodium Metabisulfite 0.1%, NaCl (305 mOsm/kg), 40° C.): 46.5%
doxycycline stability 2 Wks [4, 13]: 103.0%
doxycycline stability 5 Wks [4, 13]: 101.2%
doxycycline stability 8 Wks [4, 13]: 100.6%
doxycycline stability 12 Wks [4, 13]: 100.4%
doxycycline stability Init. [4, 13]: 103.2%
doxycycline stability 2 Wks [4, 14]: 101.0%
doxycycline stability 5 Wks [4, 14]: 93.3%
doxycycline stability 8 Wks [4, 14]: 85.2%
doxycycline stability 12 Wks [4, 14]: 84.8%
doxycycline stability 2 Wks [4, 15]: 80.3%
doxycycline stability 5 Wks [4, 15]: 55.1%
doxycycline stability 2 Wks [4, 16]: 103.0%
doxycycline stability Init. [4, 16]: 103.4%
doxycycline stability 2 Wks ([4]; Edetate Disodium 0.2%, Sodium Metabisulfite 0.2%, Sodium Thiosulfate 0.3%, NaCl (330 mOsm/kg), 25° C.): 100.6%
doxycycline stability 2 Wks ([4]; Edetate Disodium 0.2%, Sodium Metabisulfite 0.2%, Sodium Thiosulfate 0.3%, NaCl (330 mOsm/kg), 40° C.): 79.9%
